Experimental data reported in article PMC10447287, “Optimisation of Pharmaceutical Cocrystal Dissolution Performance through a Synergistic Precipitation Inhibition” (Pharmaceutical Research, 2023).
Each block holds one molecule with its values, some of them ahead of it.

How the values were obtained:
[1] = Dissolution tests of powders in DDW with predissolved polymer or combination (USP type II paddle); type: physicochemical; conditions: for solid residues after dissolution tests (PXRD): DDW in the absence or presence of predissolved polymers; for FFA concentration in solution after 4 h / FFA DPP (dissolution performance parameter): DDW; for FFA concentration in solution after 4 h: no polymer, powder dissolution; for FFA DPP (dissolution performance parameter): 0-4 h, reference same powder in DDW
Protocol: In vitro dissolution tests were performed with a USP type II paddle apparatus (DT 126 light, Erweka GmbH, Germany) at 37 ± 0.5°C with a paddle speed of 50 rpm in 400 mL of DDW in the absence and presence of a predissolved polymer (i.e., 0.2 mg/mL of PVP-VA, 1 mg/mL of PEG, 0.2 mg/mL of SLP) or a combination of two polymers (i.e., 0.2 mg/mL PVP-VA + 1 mg/mL PEG, […]).
71.7 mg of FFA-NIC cocrystal powders with the equivalent of 50 mg FFA I powders were used in each of the dissolution tests. Samples of 1 ± 0.1 mL were withdrawn from the dissolution vessel at the predefined time points of 5, 10, 15, 30, 60, 120, 180 and 240 min. The supernatant of each of the samples was separated from the excess solids by centrifugation at 13,000 RPM for 1 min in an MSE Micro Centaur. HPLC was used to determine the concentrations of FFA and NIC in solution. Solid residues obtained from the experiments were dried at room temperature and analysed by PXRD. All experiments were repeated in triplicate.
For comparison, the above dissolution tests were also repeated using 50 mg of pure FFA I powders and 82.0 mg of FFA-TP cocrystal powders.
DPP was used to evaluate the dissolution profile of the test powders in comparison to a reference system, which is defined as,4 DPP=AUCC(t)-AUCCR(t)/AUCCR(t)×100% where AUCC(t) is the area under the curve (AUC) of a dissolution profile C(t) , indicating the amount of drug dissolved is maintained over the period of the dissolution time from 0 to t, and AUCCR(t) is the AUC of a reference dissolution profile CR(t) .
The solids were scanned by D2 phaser diffractometer (Bruker U.K. Limited, Coventry, UK) with […] radiation operating at voltage of 30 kV and current of 10 mA. The scanning angle ranged from 2°-40° of 2θ. The scanning time per step was 0.4 s. The scan step size was 0.02° of 2θ.

[2] = Ionisation constants of flufenamic acid; type: physicochemical; conditions: at pH 4.5
[3] = Particle size distribution of sieved powders; type: physicochemical; conditions: sieved particles < 250 μm
Protocol: All samples (i.e., FFA, FFA-NIC cocrystal and FFA-TP cocrystal) used in the dissolution tests were slightly ground by a mortar and pestle and sieved by a 60-mesh sieve (below 250 μm) to reduce the influence of particle size on the dissolution rates. The particle size distributions of the test samples were measured using a SYNC Analyzer (MICROTRAC Retsch GmbH, Hann, Germany). The particle size distributions (D10, D50, D90 and mean particle size) of the solid particles were compared. The data were analysed by the Microtrac FLEX software (12.0.0.1).

[4] = Equilibrium solubility of FFA in DDW and PBS in the absence and presence of a predissolved polymer or a combination; type: physicochemical
Protocol: The FFA solubility was determined by suspending an excess amount of crystalline materials of FFA I in small vials with 20 mL of a selected dissolution medium (i.e., DDW or PBS pH 4.5) in the absence and presence of a predissolved single polymer and a combination. The detailed polymers and their corresponding concentrations were 0.2 mg/mL of PVP-VA, 1 mg/mL of PEG and 0.2 mg/mL of SLP, which were based on the previous study and the solubility curve obtained in the preliminary study in Figure S5 in the supporting materials. All of the suspensions were kept at 37 ± 0.5°C in a water bath with a shaking rate of 150 rpm for 24 h. Each of the supernatants was separated from excess solids in solution by centrifugation at 13,000 RPM for 1 min in an MSB 010.CX2.5 centrifuge (MSE Ltd., London, U.K.). Subsequently, the supernatant was diluted using ethanol, and the FFA concentration was determined using HPLC. The solid residues retrieved from the tests were dried for 24 h at ambient temperature and then analysed by PXRD. Each of the experiments was conducted in triplicate, and data were reported as an average concentration. Additionally, the FFA solubility in PBS pH 6.8 at 37 ± 0.5°C was also measured in triplicate. The solids were scanned by D2 phaser diffractometer (Bruker U.K. Limited, Coventry, UK) with […] radiation operating at voltage of 30 kV and current of 10 mA. The scanning angle ranged from 2°-40° of 2θ. The scanning time per step was 0.4 s. The scan step size was 0.02° of 2θ.

[5] = parameters: method as in doi:10.1007/s10953-010-9642-6; conditions: cited from earlier work
[6] = predissolved PVP-VA (0.2 mg/mL)
[7] = predissolved SLP (0.2 mg/mL) + PVP-VA (0.2 mg/mL)

solid residues after dissolution tests (PXRD) [1]: no phase transformation | FFA concentration in solution after 4 h [1]: 4.99 µg/mL | FFA DPP (dissolution performance parameter) [1, 6]: -24% | FFA DPP (dissolution performance parameter) [1, 7]: 50% | FFA DPP (dissolution performance parameter) ([1]; predissolved SLP (0.2 mg/mL)): 30% | fraction in the neutral form [2]: more than 75% | D10 [3]: 5.19 μm | D50 [3]: 13.58 μm | D90 [3]: 84.86 μm | Mean particle size [3]: 31.71 μm | solubility at 24 h ([4]; DDW, 37 °C, aqueous with cosolvent or surfactant or cyclodextrin, thermodynamic from solid, DDW, predissolved PEG (1 mg/mL) + PVP-VA (0.2 mg/mL), 37°C): 20.9 ± 5.35 µg/mL | solubility at 24 h ([4]; DDW, 37 °C, aqueous with cosolvent or surfactant or cyclodextrin, thermodynamic from solid, DDW, predissolved SLP (0.2 mg/mL) + PVP-VA (0.2 mg/mL), 37°C): 119 ± 3.3 µg/mL | solubility at 24 h ([4]; DDW, 37 °C, aqueous with cosolvent or surfactant or cyclodextrin, thermodynamic from solid, predissolved PEG (1 mg/mL)): 17.8 ± 1.72 µg/mL | solubility at 24 h ([4]; DDW, 37 °C, aqueous with cosolvent or surfactant or cyclodextrin, thermodynamic from solid, predissolved PVP-VA (0.2 mg/mL)): 12 ± 1.4 µg/mL | solubility at 24 h ([4]; DDW, absence of polymer, 37°C): 10.1 ± 0.79 µg/mL | solubility at 24 h ([4]; DDW, predissolved SLP (0.2 mg/mL), 37°C): 111 ± 16.2 µg/mL | solubility at 24 h ([4]; PBS pH 4.5, 37 °C, pH 4.5, aqueous buffer, thermodynamic from solid, PBS pH 4.5, absence of polymer, 37°C): 18.3 ± 2.39 µg/mL | solubility at 24 h ([4]; PBS pH 4.5, 37 °C, pH 4.5, aqueous with cosolvent or surfactant or cyclodextrin, thermodynamic from solid, PBS pH 4.5, predissolved PEG (1 mg/mL) + PVP-VA (0.2 mg/mL), 37°C): 11.4 ± 0.22 µg/mL | solubility at 24 h ([4]; PBS pH 4.5, 37 °C, pH 4.5, aqueous with cosolvent or surfactant or cyclodextrin, thermodynamic from solid, PBS pH 4.5, predissolved PVP-VA (0.2 mg/mL), 37°C): 11 ± 1.32 µg/mL | solubility at 24 h ([4]; PBS pH 4.5, 37 °C, pH 4.5, aqueous with cosolvent or surfactant or cyclodextrin, thermodynamic from solid, PBS pH 4.5, predissolved SLP (0.2 mg/mL) + PVP-VA (0.2 mg/mL), 37°C): 41.1 ± 4.2 µg/mL | solubility at 24 h ([4]; PBS pH 4.5, 37 °C, pH 4.5, aqueous with cosolvent or surfactant or cyclodextrin, thermodynamic from solid, PBS pH 4.5, predissolved SLP (0.2 mg/mL), 37°C): 41.9 ± 2.5 µg/mL | solubility at 24 h ([4]; PBS pH 4.5, pH 4.5, PBS pH 4.5, predissolved PEG (1 mg/mL), 37°C): 9.01 ± 0.26 µg/mL | solubility ([4]; PBS pH 6.8, 37 °C, pH 6.8, aqueous buffer, thermodynamic from solid, PBS pH 6.8, absence of polymer, 37°C): 741.1 ± 6.27 µg/mL | solid form of residues after solubility tests (PXRD) ([4]; after 24 h in various media): remained the form I
SMILES: O=C(O)c1ccccc1Nc1cccc(C(F)(F)F)c1 [FFA, Flufenamic acid]
isoelectric point pH [5]: 3.88 ± 0.03 | pKa1 (basic group) [5]: 2.92 ± 0.01 | pKa2 (acidic group) [5]: 4.84 ± 0.04

solid residues after dissolution tests (PXRD) [1]: the same as the starting materials | FFA concentration in solution after 4 h [1]: 8.35 µg/mL | FFA DPP (dissolution performance parameter) ([1]; predissolved PEG (1 mg/mL) + PVP-VA (0.2 mg/mL)): 12% | FFA DPP (dissolution performance parameter) ([1]; predissolved PEG (1 mg/mL)): 24% | FFA DPP (dissolution performance parameter) [1, 6]: -17% | FFA DPP (dissolution performance parameter) [1, 7]: 23% | FFA DPP (dissolution performance parameter) ([1]; predissolved SLP (0.2 mg/mL)): 3% | D10 [3]: 5.25 μm | D50 [3]: 12.32 μm | D90 [3]: 56.64 μm | Mean particle size [3]: 23.92 μm
SMILES: Cn1c(=O)c2[nH]cnc2n(C)c1=O.O=C(O)c1ccccc1Nc1cccc(C(F)(F)F)c1 [FFA-TP cocrystal]
